These are literature values, as cited in article PMC7935732 (Targeted Oncology, 2021).

The structures appear in SMILES notation.

One series concerns CDK 4. The note with it: compared with abemaciclib; cited from earlier work.
For another series, the system named is CDK 6. The note with it: compared with abemaciclib; cited from earlier work.

As to `Cc1nc2c(F)cc(-c3nc(Nc4ccc(CN5CCNCC5)cn4)ncc3F)cc2n1C(C)C` [M2], the “Inhibitory potency for CDK 4” value in the series with CDK 4 is reported as “comparable inhibitory potencies”. For the same molecule, the “Inhibitory potency for CDK 6” value in the series with CDK 6 is listed as “comparable inhibitory potencies”.
As for `CCN1CCN(Cc2ccc(Nc3ncc(F)c(-c4cc(F)c5nc(CO)n(C(C)C)c5c4)n3)nc2)CC1` [M20], in the series on CDK 4, the “Inhibitory potency for CDK 4” value is “comparable inhibitory potencies”. Also, the “Inhibitory potency for CDK 6” value in the series with CDK 6 is listed as “comparable inhibitory potencies”.
